Measured values from EP0216290A2, “Use of thienyl amines as agents with an output-accelerating effect; thienyl amine” (BAYER AG, priority 1985, dated 1987).

test system: Weibliche Laborratten; test: Rat feeding test (Ratten-Fütterungsversuch, Beispiel A); type: in vivo, Laborratten vom Typ SPF Wistar; settings: 25 ppm in feed ad lib, 13-day test, 12 female rats per group; relative to control without active substance = 100
From the text: Weibliche Laborratten 90-110 g schwer vom Typ SPF Wistar (Züchtung Hagemann) werden ad lib mit Standard Rattenfutter, das mit der gewünschten Menge Wirkstoff versetzt ist, gefüttert. Jeder Versuchsansatz wird mit Futter der identischen Charge durchgeführt, so daß Unterschiede in der Zusammensetzung des Futters die Vergleichbarkeit der Ergebnisse nicht beeinträchtigen können.
Die Ratten erhalten Wasser ad lib.
Jeweils 12 Ratten bilden eine Versuchsgruppe und werden mit Futter, das mit der gewünschten Menge Wirkstoff versetzt ist, gefüttert. Eine Kontrollgruppe erhält Futter ohne Wirkstoff. Das durchschnittliche Körpergewicht sowie die Streuung in den Körpergewichten der Ratten ist in jeder Versuchsgruppe gleich, so daß eine Vergleichbarkeit der Versuchsgruppen untereinander gewährleistet ist.
Während des 13-tägigen Versuchs werden Gewichtszunahme und Futterverbrauch bestimmt.
Es werden die aus der Tabelle ersichtlichen Ergebnisse erhalten: […]

| Structure (SMILES) | Gewichtszunahme |
| --- | --- |
| CCCCCc1cc(C(=O)OCC)c(NC(=O)OC2CCCCC2)s1 [Bsp. 19] | 115 |
| CCOC(=O)c1cc(CC)sc1NC(=O)Oc1ccccc1 [Bsp. 56] | 116 |
| CCCCCc1cc(C(=O)OCC)c(NC(=O)Oc2ccccc2C)s1 [Bsp. 20] | 109 |
| COC(=O)Nc1sc2c(c1C(=O)OC)CCCC2 [Bsp. 31] | 109 |
| CCOC(=O)c1c(NC(=O)OC)sc(C)c1CC [Bsp. 1, 2-Aminomethoxycarbonyl-3-carbethoxy-4-ethyl-5-methylthiophen] | 119 |
